Measurements published in PMC10517971, “An inverse agonist of orphan receptor GPR61 acts by a G protein-competitive allosteric mechanism” (Nature Communications, 2023).

Legend:
human GPR61 = biological target: T1, human GPR61 (Homo sapiens, UniProt Q9BZJ8); assay: Functional cAMP assay (HTRF), stable CHO TREx human GPR61 cells; assay type: cell-based
T1 construct: expressed in transfected cells; host or cells: CHO-K1, transient (Fugene6)
From the text: The human GPR61 (reference sequence NM_031936.4) cDNA was synthesized and subcloned into pcDNA5/FRT/TO (Thermo Fisher, Pittsburgh, PA). The pcDNA5/FRT/TO/ human GPR61 plasmid was then transfected into the Flp-In™-CHO Cell Line (Thermo Fisher, Pittsburgh, PA) and a doxycycline-inducible clonal cell line was selected (CHO TREx hGPR61 WT). Sequences encoding untagged and HiBit/hemagglutinin (HA)-tagged versions of the wild-type human GPR61 were synthesized and cloned into pcDNA3.1. The HiBit ([…]) and HA ([…]) tags were sequentially included after the N-terminal initiator methionine. Four single amino acid substitutions (N137A, R140A, V288A, N345A) were then introduced in the untagged and tagged human GPR61 constructs using site-specific mutagenesis. The nucleotide sequences of all receptor constructs were confirmed by automated DNA sequencing.
A homogeneous Time-Resolved Fluorescence (HTRF) assay (Perkin Elmer, Dynamic2 kit #) was used to assess receptor basal and inverse agonist activity at human GPR61, GPR62, and GPR101. For routine inverse agonist screening frozen CHO TREx human GPR61, GPR62 and GPR101 cells were used. […] Data were analyzed using the ratio of fluorescence intensity at 620 and 665 nm for each well, extrapolated from the cAMP standard curve to express data as nM cAMP for each well. […]

Acetylcholinesterase = Acetylcholinesterase (Homo sapiens, UniProt P22303); assay: Acetylcholinesterase Assay (Ellman); assay type: biochemical
Chain of Acetylcholinesterase (P22303 32-614, species assumed): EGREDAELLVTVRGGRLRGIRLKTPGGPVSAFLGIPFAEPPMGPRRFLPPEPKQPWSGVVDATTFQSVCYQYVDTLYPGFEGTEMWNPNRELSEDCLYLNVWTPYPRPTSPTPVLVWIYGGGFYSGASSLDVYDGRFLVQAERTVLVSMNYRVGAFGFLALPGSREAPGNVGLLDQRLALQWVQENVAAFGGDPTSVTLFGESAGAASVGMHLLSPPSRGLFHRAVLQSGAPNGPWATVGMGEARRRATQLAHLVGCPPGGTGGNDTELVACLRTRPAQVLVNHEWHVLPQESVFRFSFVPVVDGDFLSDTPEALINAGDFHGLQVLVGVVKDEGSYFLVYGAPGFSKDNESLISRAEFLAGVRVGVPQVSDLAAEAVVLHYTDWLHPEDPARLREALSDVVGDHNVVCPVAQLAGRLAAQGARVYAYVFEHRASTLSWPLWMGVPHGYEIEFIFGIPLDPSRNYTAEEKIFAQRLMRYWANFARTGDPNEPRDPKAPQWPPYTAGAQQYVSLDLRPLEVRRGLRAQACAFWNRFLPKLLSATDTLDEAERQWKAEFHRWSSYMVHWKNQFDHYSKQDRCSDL
Procedure: 67 black 384 well flat -bottomed polystyrene plates. Compound/vehicle or standard (5 µL) were added
68 to wells followed by His -tagged BRD4 (10 µL; 40 nM final concentration in assay). Following a
69 15 min incubation at room temperature a propri etary Cy5 -labelled probe molecule (5 µL; 2 nM
70 final concentration in assay) was added. Following, an additional 16 h incubation at room
71 temperature fluorescence polarization measurements were made using an Envision plate reader
72 (Perkin Elmer, Waltham, MA, USA) and mP values were used for analysis .
73 Acetylcholinesterase As say
74 The assay described is based on Ellmans method, in which thiocholine produced by the action of
75 acetylcholinesterase forms a yellow color with 5,5'- dithiobis(2- nitrobenzoic acid). The intensity
76 of the product color, measured at 405 nm, is proportionate to the enzyme activity in the sample.
77 To each well of a clear 96 polystyrene plate 90 µL enzyme solution (1mU/well) or phosphate
78 buffered saline (PBS) and 10 µL compound/standard or vehicle was added. The plate was
79 incubated at room temperature for 15 min. Subsequently 100 µL of substrate/detection reagent
80 (800 µM acetylthiocholine/1mM 5,5'- dithiobis(2- nitrobenzoic acid)) was added and the plate was
81 read at the 20 min time point.
83 Human embryonic kidney (HEK) cells stably transfected with a doxycycline inducible plasmid […]

T1 sequence (Q9BZJ8 whole entry): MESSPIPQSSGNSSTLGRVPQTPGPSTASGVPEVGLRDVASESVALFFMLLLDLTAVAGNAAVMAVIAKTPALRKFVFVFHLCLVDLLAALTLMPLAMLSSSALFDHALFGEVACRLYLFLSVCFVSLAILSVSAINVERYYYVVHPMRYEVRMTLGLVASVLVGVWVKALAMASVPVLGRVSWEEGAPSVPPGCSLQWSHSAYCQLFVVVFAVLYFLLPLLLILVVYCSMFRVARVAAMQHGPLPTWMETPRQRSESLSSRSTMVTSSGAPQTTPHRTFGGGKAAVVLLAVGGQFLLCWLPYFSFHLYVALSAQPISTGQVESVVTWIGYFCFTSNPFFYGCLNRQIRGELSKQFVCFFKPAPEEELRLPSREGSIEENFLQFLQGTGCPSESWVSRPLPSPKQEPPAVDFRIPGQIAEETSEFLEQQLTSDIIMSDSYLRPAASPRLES

CCOc1cc(C)nc(N(CCOC)S(=O)(=O)c2ccc(NCc3c(F)cncc3F)nc2OC)n1 [Compound 1] was tested, and the “potency against GPR61 relative to GPR62 and GPR101” value (human GPR61; GPR61 vs GPR62 and GPR101, peer review reply) was “roughly 1000 fold”, the IC50 (human GPR61; stable CHO TREx cells, Supplementary Table 2) was 0.021 µM and the IC50 (Acetylcholinesterase) was > 50 µM.
